# Assay results: patent publication US7902354B2, “Lapachone compounds and methods of use thereof” (ArQule, Inc., priority 2006, dated 2011)
row,melting point,Compound
1,111 to 114 °C,O=C1C(=O)c2ccccc2C2=C1SCC1(CCCN(C(=O)Oc3cccc(C(F)(F)F)c3)CC1)O2 (centres unmarked)
2,95 to 99 °C,O=C1C(=O)c2ccccc2C2=C1SCC1(CCCN(C(=O)Oc3cccc(C(F)(F)F)c3)C1)O2 (centres unmarked)
3,233 to 234 °C,COc1ccc2c(c1)C(=O)C(=O)C1=C2OC2(CCN(C(=O)Oc3cccc(C(F)(F)F)c3)CC2)CS1
4,188 to 190 °C,O=C1C(=O)c2ccc(-c3ccccc3)cc2C2=C1SCC1(CCN(C(=O)Oc3cccc(C(F)(F)F)c3)CC1)O2
5,70 to 73 °C,O=C1C(=O)c2ccccc2C2=C1SCC1(CCN(C3CCN(C(=O)Oc4cccc(C(F)(F)F)c4)CC3)CC1)O2
6,155 to 159 °C,O=C1C(=O)c2ccccc2C2=C1SCC1(CCN(CC3CCCO3)CC1)O2 (centres unmarked)
7,135 to 137 °C,O=C1C(=O)c2ccccc2C2=C1SCC1(CCN(CC3CCCCO3)CC1)O2 (centres unmarked)
8,104 to 107 °C,O=C1C(=O)c2ccccc2C2=C1SCC1(CCN(Cc3ccc(F)cc3F)CC1)O2
9,196 to 197 °C,COc1ccc2c(c1)C1=C(SCC3(CCN(Cc4ccc(F)cc4)CC3)O1)C(=O)C2=O
10,197 to 198 °C,O=C1C(=O)c2ccc(-c3ccccc3)cc2C2=C1SCC1(CCN(Cc3ccc(F)cc3)CC1)O2
11,145 to 147 °C,O=C1C(=O)c2ccccc2C2=C1SCC1(CCN(CCCCc3ccccc3)CC1)O2
12,130 to 132 °C,O=C1C(=O)c2ccccc2C2=C1SCC1(CCN(CCCOc3ccc(Cl)cc3)CC1)O2
13,164 to 165 °C,O=C1C(=O)c2ccccc2C2=C1SCC1(CCN(CCCOc3ccc(F)cc3)CC1)O2
14,197 to 198 °C,CC(C)N1CCC2(CC1)CSC1=C(O2)c2ccccc2C(=O)C1=O
15,219 to 221 °C,COc1ccc2c(c1)C(=O)C(=O)C1=C2OC2(CCN(Cc3ccc(F)cc3)CC2)CS1
16,117 to 118 °C,O=C1C(=O)c2ccccc2C2=C1SCC1(CCN(CCc3ccccc3)CC1)O2
17,210 to 211 °C,O=C1C(=O)c2ccc(Br)cc2C2=C1SCC1(CCN(Cc3ccc(F)cc3)CC1)O2
18,110 to 113 °C,O=C1C(=O)c2ccccc2C2=C1SCC1(CCN(C3CCCC3O)CC1)O2 (centres unmarked)
19,180 to 182 °C,CCC(O)CN1CCC2(CC1)CSC1=C(O2)c2ccccc2C(=O)C1=O (centres unmarked)
20,97 to 99 °C,CC(C)OCC(O)CN1CCC2(CC1)CSC1=C(O2)c2ccccc2C(=O)C1=O (centres unmarked)
21,195 to 196 °C,O=C1C(=O)c2ccccc2C2=C1SCC1(CCN(CC(O)Cc3ccc(Cl)cc3)CC1)O2 (centres unmarked)
22,82 to 83 °C,O=C1C(=O)c2ccc(Br)cc2C2=C1SCC1(CCN(C[C@@H](O)Cc3ccccc3)CC1)O2
23,150 to 152 °C,CC(C)(C)c1ccc(OC[C@@H](O)CN2CCC3(CC2)CSC2=C(O3)c3cc(Br)ccc3C(=O)C2=O)cc1
24,114 to 116 °C,CC(C)(C)c1ccc(OC[C@@H](O)CN2CCC3(CC2)CSC2=C(O3)c3cc(F)ccc3C(=O)C2=O)cc1
25,92 to 96 °C,O=C1C(=O)c2ccc(Cl)cc2C2=C1SCC1(CCN(C[C@@H](O)Cc3ccccc3)CC1)O2
26,92 to 93 °C,O=C1C(=O)c2ccc(Cl)cc2C2=C1SCC1(CCN(C[C@H](O)Cc3ccccc3)CC1)O2
27,65 to 67 °C,O=C1C(=O)c2ccccc2C2=C1SCC1(CCCN(C[C@H](O)Cc3ccccc3)C1)O2 (some centres unmarked)

row,melting point,Compound
1,59 to 60 °C,O=C1C(=O)c2ccccc2C2=C1SCC1(CCCN(C[C@@H](O)Cc3ccccc3)C1)O2 (some centres unmarked)
2,190 to 193 °C,CC(C)(C)c1ccc(OC[C@@H](O)CN2CCC(N3CCC4(CC3)CSC3=C(O4)c4ccccc4C(=O)C3=O)CC2)cc1
3,94 to 97 °C,CC(C)(C)c1ccc(OC[C@H](O)CN2CCC3(CC2)CSC2=C(O3)c3cc(-c4ccccc4)ccc3C(=O)C2=O)cc1
4,188 to 190 °C,COc1ccc2c(c1)C(=O)C(=O)C1=C2OC2(CCN(C[C@@H](O)COc3ccc(C(C)(C)C)cc3)CC2)CS1
5,146 to 147 °C,COc1ccc2c(c1)C(=O)C(=O)C1=C2OC2(CCN(C[C@@H](O)Cc3ccccc3)CC2)CS1
6,145 to 147 °C,COc1ccc2c(c1)C(=O)C(=O)C1=C2OC2(CCN(C[C@H](O)Cc3ccccc3)CC2)CS1
7,189 to 191 °C,COc1ccc2c(c1)C(=O)C(=O)C1=C2OC2(CCN(C[C@H](O)COc3ccc(Cl)cc3)CC2)CS1
8,189 to 191 °C,COc1ccc2c(c1)C(=O)C(=O)C1=C2OC2(CCN(C[C@H](O)COc3ccc(F)cc3)CC2)CS1
9,106 °C,COc1ccc2c(c1)C1=C(SCC3(CCN(C[C@H](O)Cc4ccccc4)CC3)O1)C(=O)C2=O
10,110 °C,COc1ccc2c(c1)C1=C(SCC3(CCN(C[C@@H](O)Cc4ccccc4)CC3)O1)C(=O)C2=O
11,109 to 110 °C,COc1ccc2c(c1)C1=C(SCC3(CCN(C[C@H](O)COc4ccc(Cl)cc4)CC3)O1)C(=O)C2=O
12,151 to 152 °C,CC(C)(C)c1ccc(OC[C@@H](O)CN2CCC3(CC2)CSC2=C(O3)c3cc(-c4ccccc4)ccc3C(=O)C2=O)cc1
13,107 to 109 °C,CC(C)(C)c1ccc(OC[C@@H](O)CN2CCC3(CC2)CSC2=C(O3)c3cc(N4CCOCC4)ccc3C(=O)C2=O)cc1
14,122 to 124 °C,COC(=O)Cc1ccc(OC[C@H](O)CN2CCC3(CC2)CSC2=C(O3)c3ccccc3C(=O)C2=O)cc1
15,183 to 184 °C,O=C1C(=O)c2ccccc2C2=C1SCC1(CCN(C[C@H](O)COc3ccc4cc(Br)ccc4c3)CC1)O2
16,104 to 105 °C,O=C1C(=O)c2ccc(Br)cc2C2=C1SCC1(CCN(C[C@H](O)COc3ccc4cc(Br)ccc4c3)CC1)O2
17,76 to 77 °C,O=C1C(=O)c2ccc(F)cc2C2=C1SCC1(CCN(C[C@H](O)Cc3ccccc3)CC1)O2
18,164 to 167 °C,O=C1C(=O)c2ccccc2C2=C1SCC1(CCN(C[C@H](O)COc3ccc4ccccc4c3)CC1)O2
19,82 to 84 °C,O=C1C(=O)c2ccc(Br)cc2C2=C1SCC1(CCN(C[C@H](O)Cc3ccccc3)CC1)O2
20,173 to 175 °C,O=C1C(=O)c2ccc(-c3ccccc3)cc2C2=C1SCC1(CCN(C[C@H](O)COc3ccc(F)cc3)CC1)O2
21,93 to 98 °C,O=C1C(=O)c2ccc(-c3ccccc3)cc2C2=C1SCC1(CCN(C[C@H](O)COc3ccc(Cl)cc3)CC1)O2
22,153 to 156 °C,COc1ccc2c(c1)C1=C(SCC3(CCN(C[C@H](O)COc4ccc(C(C)(C)C)cc4)CC3)O1)C(=O)C2=O
23,172 to 174 °C,O=C1C(=O)c2ccccc2C2=C1SCC1(CCN(c3cc(Cl)ncn3)CC1)O2
24,153 to 158 °C,Cc1ccc(S(=O)(=O)NC(=O)N2CCC3(CC2)CSC2=C(O3)c3ccccc3C(=O)C2=O)cc1
25,231 to 233 °C,CC(C)(C)OC(=O)N1CCC2(CC1)CSC1=C(O2)c2cc(-c3cccc(C(F)(F)F)c3)ccc2C(=O)C1=O
26,217 to 219 °C,CC(C)(C)OC(=O)N1CCC2(CC1)CSC1=C(O2)c2cc(-c3cccnc3)ccc2C(=O)C1=O
27,225 to 227 °C,CC(C)(C)OC(=O)N1CCC2(CC1)CSC1=C(O2)c2cc(-c3ccncc3)ccc2C(=O)C1=O

row,melting point,Compound
1,243 to 244 °C,CC(C)(C)OC(=O)N1CCC2(CC1)CSC1=C(O2)c2cc(N3CCOCC3)ccc2C(=O)C1=O
2,94 to 100 °C,Cl.O=C1C(=O)c2ccccc2C2=C1SCC1(CCN(C(=O)C3CCNCC3)CC1)O2
3,200 to 202 °C,Cl.O=C1C(=O)c2ccccc2C2=C1SCC1(CCN(C(=O)CC3CCNCC3)CC1)O2
4,194 to 195 °C,O=C1C(=O)c2ccccc2C2=C1SCC1(CCCCC1)O2
5,195 to 197 °C,O=C1C(=O)c2ccccc2C2=C1SCC1(CCOCC1)O2
6,221 to 223 °C,O=C1C(=O)c2ccccc2C2=C1SCC1(CCSCC1)O2
7,224 to 225 °C,CC(C)(C)OC(=O)NC1CCC2(CC1)CSC1=C(O2)c2ccccc2C(=O)C1=O (centres unmarked)
8,256 to 257 °C,Cl.NC1CCC2(CC1)CSC1=C(O2)c2ccccc2C(=O)C1=O (centres unmarked)
9,300 °C (dec.),O=C1C(=O)c2ccc(N3CCCCC3)cc2C2=C1SCC1(CCNCC1)O2
10,223 to 228 °C,O=C1C(=O)c2ccc(-c3ccncc3)cc2C2=C1SCC1(CCNCC1)O2
11,213 to 215 °C,O=C1C(=O)c2ccc(-c3cccnc3)cc2C2=C1SCC1(CCNCC1)O2
12,199 to 203 °C,O=C1C(=O)c2ccc(-c3cccc(C(F)(F)F)c3)cc2C2=C1SCC1(CCNCC1)O2
13,190 to 240 °C,O=C1C(=O)c2ccc(-c3ccc(C(F)(F)F)cc3)cc2C2=C1SCC1(CCNCC1)O2
14,83 to 87 °C,O=C1C(=O)c2ccc(-c3ccccc3)cc2C2=C1SCC1(CCNCC1)O2
15,299 to 300 °C,O=C1C(=O)c2ccccc2C2=C1SCC1(CCN(C(=O)c3ccc(-n4cccn4)cc3)CC1)O2
16,160 to 162 °C,O=C1C(=O)c2ccccc2C2=C1SCC1(CCN(C(=O)c3cccc([N+](=O)[O-])c3)CC1)O2
17,98 to 100 °C,O=C1C(=O)c2ccccc2C2=C1SCC1(CCCN(C(=O)c3cccc(Cl)c3)CC1)O2 (centres unmarked)
18,130 °C (dec.),COc1ccc2c(c1)C(=O)C(=O)C1=C2OC2(CCN(C(=O)c3cccc(Cl)c3)CC2)CS1
19,240 to 242 °C,O=C1C(=O)c2ccc(-c3cccnc3)cc2C2=C1SCC1(CCN(C(=O)c3cccc(Cl)c3)CC1)O2
20,265 to 267 °C,O=C1C(=O)c2ccc(-c3ccncc3)cc2C2=C1SCC1(CCN(C(=O)c3cccc(Cl)c3)CC1)O2
21,125 to 130 °C,O=C1C(=O)c2ccc(Cl)cc2C2=C1SCC1(CCN(C(=O)c3cccc(Cl)c3)CC1)O2
22,135 to 140 °C,O=C1C(=O)c2ccc(Br)cc2C2=C1SCC1(CCN(C(=O)c3cccc(Cl)c3)CC1)O2
23,125 to 127 °C,COc1ccc2c(c1)C1=C(SCC3(CCN(C(=O)c4cccc(Cl)c4)CC3)O1)C(=O)C2=O
24,266 to 268 °C,O=C1C(=O)c2ccccc2C2=C1SCC1(CCN(C(=O)c3nc4ccccc4[nH]3)CC1)O2
25,218 to 220 °C,NC(=O)N1CCC2(CC1)CSC1=C(O2)c2ccccc2C(=O)C1=O
26,210 to 211 °C,O=C1C(=O)c2ccc(Br)cc2C2=C1SCC1(CCN(C(=O)Oc3cccc(C(F)(F)F)c3)CC1)O2
